From patent publication US20180153203A1, “(5R)-(ß-D-GLUCOPYRANOSYLOXY)-1,5-DIHYDRO-2H-PYRROL-2-ONE AS UMAMI MOLECULE” (priority 2015, published 2018)
Like-named read-outs stand apart in the source and are kept apart here.

What was measured:
[1] = system: sensory panel of 5 to 8 trained persons; conditions: comparison value for MSG, no source or test given; cited from earlier work
[2] = system: sensory panel of 5 to 8 trained persons; experiment: Sensory panel tasting of umami intensity in water; assay type: in vivo, human; conditions: for Intense umami / No umami / Umami: water, count of tasters on 3-point umami scale; for threshold (umami) / threshold (umami), preferably: in water
Experimental: (§1) The sensory tests were performed in a sensory panel room at 20-25° C. The sensory panel consisted of 5 to 8 trained persons. The technical tasting was measured versus a control sample. Tasters were asked to judge the different products according to umami intensity on a 3-point scale (no umami, umami and intense umami). Additionally the tasters were asked to objectively describe the prototype with comments.
The stereoisomers have been tested to umami intensity as described in example 7.

[3] = system: sensory panel of 5 to 8 trained persons; experiment: Sensory panel tasting in 0.2% sodium chloride and 0.04% sugar and 0.08% MSG; assay type: in vivo, human; conditions: 0.2% sodium chloride, count of tasters
Experimental: as §1

[4] = system: sensory panel; experiment: Sensory panel tasting of tomato soups; assay type: in vivo, human; conditions: tomato soup
Experimental: (5R)-(β-D-glucopyranosyloxy)-1,5-dihydro-2H-pyrrol-2-one was added at 500 mg/L (500 ppm) to the soups.

[5] = system: sensory panel of 5 to 8 trained persons; experiment: Sensory panel tasting in 0.2% sodium chloride and 0.04% sugar; assay type: in vivo, human; conditions: for Intense umami / No umami / Umami: 0.2% sodium chloride and 0.04% sugar, count of tasters
Experimental: as §1

[6] = system: sensory panel of 5 to 8 trained persons; experiment: Sensory panel tasting in 0.2% sodium chloride and 0.04% sugar and 0.015% IMP + GMP; assay type: in vivo, human; conditions: 0.2% sodium chloride, count of tasters
Experimental: as §1

**Q.** Which “threshold (umami)” value [1] does the source give for `N[C@@H](CCC(=O)O)C(=O)[O-].[Na+]` [Monosodium glutamat] here?
**A.** 1500 µmol/L

**Q.** Which results are given for `O=C1C=C[C@H](O[C@@H]2O[C@H](CO)[C@@H](O)[C@H](O)[C@H]2O)N1` [beta-S, (5S)-(β-D-glucopyranosyloxy)-1,5-dihydro-2H-pyrrol-2-one]?
**A.** Intense umami ([2]; C 100 mg/l): 0; No umami ([2]; C 100 mg/l): 5; Umami ([2]; C 100 mg/l): 0; Intense umami ([2]; C 200 mg/l): 0; No umami ([2]; C 200 mg/l): 5; Umami ([2]; C 200 mg/l): 0; Intense umami ([2]; C 500 mg/l): 0; No umami ([2]; C 500 mg/l): 4; Umami ([2]; C 500 mg/l): 1

**Q.** With `O=C1C=C[C@@H](O[C@H]2O[C@H](CO)[C@@H](O)[C@H](O)[C@H]2O)N1` [alpha-R, (5R)-(α-D-glucopyranosyloxy)-1,5-dihydro-2H-pyrrol-2-one] as the molecule, how does the Intense umami ([2]; C 200 mg/l) read?
**A.** 0

**Q.** And the No umami ([2]; C 200 mg/l)?
**A.** 5

**Q.** What about the Umami ([2]; C 200 mg/l) of the same molecule?
**A.** 0

**Q.** What about the Intense umami ([2]; C 400 mg/l) of the same molecule?
**A.** 0

**Q.** What about the No umami ([2]; C 400 mg/l) of the same molecule?
**A.** 5

**Q.** What about the Umami ([2]; C 400 mg/l) of the same molecule?
**A.** 0

**Q.** And the Intense umami ([2]; C 800 mg/l)?
**A.** 0

**Q.** What about the No umami ([2]; C 800 mg/l) of the same molecule?
**A.** 5

**Q.** And the Umami ([2]; C 800 mg/l)?
**A.** 0

**Q.** With “(5R)-(β-D-glucopyranosyloxy)-1,5-dihydro-2H-pyrrol-2-one” as the molecule, how does the Intense umami ([3]; C 200 mg/l) read?
**A.** 5

**Q.** And the No umami ([3]; C 200 mg/l)?
**A.** 0

**Q.** And the Umami ([3]; C 200 mg/l)?
**A.** 1

**Q.** What about the Intense umami ([3]; C 500 mg/l) of the same molecule?
**A.** 3

**Q.** And the No umami ([3]; C 500 mg/l)?
**A.** 0

**Q.** What about the Umami ([3]; C 500 mg/l) of the same molecule?
**A.** 3

**Q.** What about the “tomato soups with and without the compound, perceived difference” value ([4]; 500 mg/L (500 ppm)) of the same molecule?
**A.** perceived as significantly different

**Q.** What about the “savory, umami taste of tomato soups” value ([4]; 500 ppm) of the same molecule?
**A.** increased significantly

**Q.** And the “threshold (umami)” value ([2]; corresponding to 250 mg/l)?
**A.** 957 µmol/L

**Q.** What about the “threshold (umami), preferably” value ([2]; corresponding to 500 mg/l) of the same molecule?
**A.** 1914 µmol/L

**Q.** What about the “threshold (umami)” value ([2]; from Table 1) of the same molecule?
**A.** 250 mg/L

**Q.** What about the “threshold (umami), preferably” value ([2]; from Table 1, 'preferably') of the same molecule?
**A.** 500 mg/L

**Q.** And the Intense umami ([2]; C 100 mg/l)?
**A.** 0

**Q.** What about the No umami ([2]; C 100 mg/l) of the same molecule?
**A.** 5

**Q.** What about the Umami ([2]; C 100 mg/l) of the same molecule?
**A.** 3

**Q.** And the Intense umami ([2]; C 250 mg/l)?
**A.** 1

**Q.** What about the No umami ([2]; C 250 mg/l) of the same molecule?
**A.** 3

**Q.** And the Umami ([2]; C 250 mg/l)?
**A.** 4

**Q.** And the Intense umami ([2]; C 500 mg/l)?
**A.** 1

**Q.** And the No umami ([2]; C 500 mg/l)?
**A.** 1

**Q.** And the Umami ([2]; C 500 mg/l)?
**A.** 6

**Q.** And the Intense umami ([5]; C 200 mg/l)?
**A.** 0

**Q.** What about the No umami ([5]; C 200 mg/l) of the same molecule?
**A.** 3

**Q.** What about the Umami ([5]; C 200 mg/l) of the same molecule?
**A.** 4

**Q.** And the Intense umami ([5]; C 500 mg/l)?
**A.** 2

**Q.** And the No umami ([5]; C 500 mg/l)?
**A.** 2

**Q.** What about the Umami ([5]; C 500 mg/l) of the same molecule?
**A.** 3

**Q.** And the umami enhancing property ([5]; conclusion from Table 2, table 3 and table 4 (salt/sugar base, with MSG, with IMP + GMP))?
**A.** shows the umami enhancing property

**Q.** What about the Intense umami ([6]; C 200 mg/l) of the same molecule?
**A.** 0

**Q.** What about the No umami ([6]; C 200 mg/l) of the same molecule?
**A.** 4

**Q.** And the Umami ([6]; C 200 mg/l)?
**A.** 3

**Q.** And the Intense umami ([6]; C 500 mg/l)?
**A.** 0

**Q.** And the No umami ([6]; C 500 mg/l)?
**A.** 3

**Q.** And the Umami ([6]; C 500 mg/l)?
**A.** 4

**Q.** What does the source list for `O=C1C=C[C@H](O[C@H]2O[C@H](CO)[C@@H](O)[C@H](O)[C@H]2O)N1` [alpha-S, (5S)-(α-D-glucopyranosyloxy)-1,5-dihydro-2H-pyrrol-2-one]?
**A.** Intense umami ([2]; C 100 mg/l): 0; No umami ([2]; C 100 mg/l): 5; Umami ([2]; C 100 mg/l): 0; Intense umami ([2]; C 250 mg/l): 0; No umami ([2]; C 250 mg/l): 4; Umami ([2]; C 250 mg/l): 1; Intense umami ([2]; C 500 mg/l): 0; No umami ([2]; C 500 mg/l): 5; Umami ([2]; C 500 mg/l): 0
